# Results from patent US20260315653A1, “ANTICOAGULANT COMPOSITIONS COMPRISING ANTI-PLATELET AND ANTI-INFLAMMATORY DRUGS AND METHODS AND DEVICES FOR THEIR USE” (Elixir Medical Corporation, priority 2023, published 2026).
# Read-outs that look alike come from different tables or passages of the source.
# Key:
# [1] = test system: blood clotting (citrated sheep blood); experiment: Activated clotting time (ACT) of EDTA or other anti-coagulant compounds in citrated sheep blood (Example 13)
# Method: The activated clotting time (ACT) evaluation of anticoagulants was performed in Calcium-reconstituted sheep blood and recorded employing the Hemochron® Response device.
# (§1) The ACT measurements were made in citrated sheep blood. 1.9 ml of citrated sheep blood was added to a test tube containing an activator (Hemochron@Celite@ ACT tubes, Lot F8FTE026 from Accriva Diagnostics, Inc.). A target amount of EDTA or other anti-coagulant compounds solution was then added into the test tube. The test tube was gently swirled so that the blood and EDTA or other anti-coagulant compounds was well-mixed. 0.1 ml of 0.3M calcium chloride was then added. The tube was gently shaken before being inserted into the Hemochron Response detector. The ACT read out was recorded and reported. The ACT of the control blood in the absence of any EDTA or other anti-coagulant compounds as first determined to establish a baseline. Then ACT was determined in the presence of different concentrations of EDTA or analogues as a single component.
# [2] = test system: blood clotting (citrated sheep blood); experiment: Net activated clotting time (net ACT) in citrated sheep blood (Examples 3-5); set-up: key: seconds; measured ACT minus blood control ACT (165 s); settings: single drug, blood control 165 seconds
# Method: The activated clotting time (ACT) evaluation of anticoagulants was performed in calcium citrate sheep blood and recorded employing the Hemochron® Response device. The ACT measurements were made in citrated sheep blood. 1.9 ml of citrated sheep blood was added to a test tube containing an activator (Hemochron@Celite@ ACT tubes, Lot F8FTE026 from Accriva Diagnostics, Inc.). A target amount of drug solution was then added into the test tube. The test tube was gently swirled so that the blood and drug were well-mixed. 0.1 ml of 0.3M calcium chloride was then added. The tube was gently shaken before being inserted into the Hemochron Response detector. The ACT read out was recorded and reported. The ACT of the control blood in the absence of any drug as first determined to establish a baseline. Here the blood control measured is 165 seconds. Then ACT was determined in the presence of different concentrations of the drug as a single component. In the following study, the net ACT (measured ACT minus blood control ACT) was utilized to visualize the synergistic effect of direct factor Xa inhibitor (Rivaroxaban) and direct factor IIa inhibitor (Argatroban) drug combinations. The figures are presented in ng/mg wherein the density of blood and tissue are approximately the same.
# Example 4 is the continuation of example 3, which employed the same method as in example 3. The only difference is that the direct factor Xa inhibitor Edoxaban is used in place of direct factor Xa inhibitor Rivaroxaban.
# Example 5 is the continuation of example 3, which employed the same method as in example 3. The only difference is that the direct factor Xa inhibitor Betrixaban is used in place of direct factor Xa inhibitor Rivaroxaban.
# [3] = test system: blood clotting (heparinized sheep blood); experiment: Net ACT initiated by platelet activation factor (PAF) and CaCl2 in heparinized sheep blood (Examples 6-11)
# Method: In order to examine the potential synergistic effects between anti-inflammatory agents, direct factor Xa inhibitors, direct factor IIa inhibitors, antiplatelets (P2Y12 inhibitor and glycoprotein IIb/IIIa inhibitor, platelet activation factor and CaCl2 were utilized by measuring ACT. Heparinized sheep blood was used to preserve platelet function.
# The activated clotting time (ACT) evaluation initiated by platelet activation factor (PAF) and calcium chloride (CaCl2) was performed in heparinized sheep blood and recorded employing the Hemochron® Response device. […] A target amount of drug solution was then added into the test tube. The test tube was gently swirled so that the blood and drug were well-mixed. […] The tube was gently shaken before being inserted into the Hemochron Response detector. The ACT read out was recorded and reported. The ACT of the control heparinized sheep blood in the absence of any drug as first measured to establish a baseline. […] Then ACT was measured in the presence of different concentrations of the drug measured. Selected drug combinations were then tested to evaluate for potential synergy in action between the drug combination. The net ACT (ACT minus blood control ACT) was utilized to visualize the synergistic effect. […] The figures are presented in ng/mg wherein the density of blood and tissue are approximately the same.
# [4] = test system: blood clotting (fresh pig blood); experiment: Activated clotting time (ACT) of EDTA or analogues in fresh pig blood (Example 12); settings: for Increase in clotting time compared to control: control 154 sec; for blood coagulation compared to the blood control: EDTA 200 ng/mg, sodium salts 300 ng/mg
# Method: The activated clotting time (ACT) evaluation of EDTA or analogues was performed in fresh pig blood and recorded employing the Hemochron® Response device.
# as §1, with “fresh pig” for “citrated sheep”, “1.0” for “1.9”, “drug” for “EDTA or other anti-coagulant compounds”
# [5] = pH of 1 mg/ml EDTA or analogue in water or phosphate buffer; type: physicochemical
# From the text: Based on the pH of EDTA or analogues in water and in 0.1M phosphate buffered saline as show in Table 2, EDTA disodium salt or dipotassium salt has a pH close to neutral pH in human body (6.42-6.92), whereas EDTA tetrasodium or trisodium has a very basic pH (>8.0) in human body. EDTA disodium or dipotassium is preferred in the examples.
# [6] = as above; type: physicochemical; settings: 1 mg/ml in 0.01 M pH 7.4 phosphate buffer, 21.8-22.3 ° C.
# porcine coronary artery = experiment: In vivo porcine coronary stent implantation: fibrin score and late lumen loss (Examples 25-26); settings: Table 9, day 7
# Method: The drug eluting stent systems containing different anticoagulants prepared as described in Example 11 were evaluated at 3 hours, 6 hours, 1 day, 3 days, 6 days, 7 days, or 28 days following implantation in a porcine coronary artery model.
# The porcine model was chosen as this model has been used extensively for stent and angioplasty studies resulting in a large volume of data on the vascular response properties and its correlation to human vascular response (Schwartz et al, Circulation. 2002; 106:1867 1873). The animals were housed and cared for in accordance with the Guide for the Care and Use of Laboratory Animals as established by the National Research Council.
# After induction of anesthesia, the left or right femoral artery was accessed using standard techniques and an arterial sheath was introduced and advanced into the artery. Vessel angiography was performed under fluoroscopic guidance, a 7 Fr. guide catheter was inserted through the sheath and advanced to the appropriate location where intracoronary nitroglycerin was administered. An appropriate implantation segment of coronary artery was randomly selected and a 0.014″ guidewire inserted. Quantitative Coronary Angiography (QCA) was performed to document the results. The appropriately size stent was advanced to the deployment site. The balloon was inflated at a steady rate to a pressure sufficient to achieve a balloon to artery ratio of approximately 1.1 to 1.0.
# Follow up angiography was performed at the designated timepoint for each of the animals. Late lumen loss (LLL) can be expressed as: […]
# The LLL is an indicator of the amount smooth muscle cell (SMC) proliferation or inhibition. It is used to measure efficacy between drugs for SMC proliferation inhibition. The smaller the LLL, the better the efficacy of the drug.
# Stented portions of coronary arteries were embedded in methyl methacrylate (MMA), then divided into a target of at least three blocks of approximately similar lengths for histology evaluation. Quantitative histopathological evaluation of stented artery sections was then performed and scored as indicated. For Fibrin formation, scores ranged from 0 to 3, with a score of 0 indicating absent or rare minimal spotting around struts of the stent, a score of 1 indicating the presence of fibrin in small amounts localized only around the struts, a score of 2 indicating the moderately abundant or denser presence of fibrin around and extending beyond the struts, and a score of 3 indicating the presence of abundant and dense fibrin and/or bridging of the fibrin between the struts. The mean score was calculated and reported. The mean of each section was then averaged to provide a mean fibrin score per stent. The smaller the fibrin score, the better efficacy.
# [7] = 167 ng/mg, blood control 202 sec
# [8] = 1 mg/ml in d-water, 21.8-22.0 ° C.
# [9] = single drug, 0.05 ng/mg, PAF & CaCl2, blood control 235 seconds
molecule,measurement,setting,value
CCCCCCCCCCCCCC[N+](C)(C)Cc1ccccc1.[Cl-] [Benzyldimethyltetradecyl-ammonium chloride],Clotting time (ACT),[1]; 67 ng/mg,316 s
same,Increase in clotting time compared to control,[1]; 67 ng/mg,114 s
same,Clotting time (ACT),[1]; 100 ng/mg,421 s
same,Increase in clotting time compared to control,[1]; 100 ng/mg,219 s
same,Clotting time (ACT),[1]; 133 ng/mg,983 s
same,Increase in clotting time compared to control,[1]; 133 ng/mg,781 s
same,Clotting time (ACT),[1]; [7],1370 s
same,Increase in clotting time compared to control,[1]; [7],1168 s
COc1ccc(NC(=O)c2ccc(C(=N)N(C)C)cc2)c(C(=O)Nc2ccc(Cl)cn2)c1 [Betrixaban],net ACT,[2]; 0.3 ng/mg,21
COc1cc2c(c(OC)c1OC)-c1ccc(OC)c(=O)cc1[C@@H](NC(C)=O)CC2 [Colchicine],net ACT,[3],41 s
"O=C(O)C(S)C(S)C(=O)O (stereo not drawn) [Dimercaptosuccinic acid (DMSA), Dimercaptosuccinic acid]",Clotting time (ACT),[4]; 200 ng/mg,151 s
same,Increase in clotting time compared to control,[4]; 200 ng/mg,-3 s
O=C(O)CN(CCN(CC(=O)O)CC(=O)O)CC(=O)O [EDTA dipotassium],pH,[5]; [8],6.25
same,pH,"[5]; in water and phosphate buffered saline, listed as dipotassium salt",6.42-6.92
same,pH,[6],6.93
CC(=O)OCOC(=O)CN(CCN(CC(=O)OCOC(C)=O)CC(=O)OCOC(C)=O)CC(=O)OCOC(C)=O [EDTA tetra acetoxymethyl ester],Clotting time (ACT),[4]; 500 ng/mg,158 s
same,Increase in clotting time compared to control,[4]; 500 ng/mg,4 s
O=C(O)CN(CCN(CC(=O)O)CC(=O)O)CC(=O)O [EDTA tri sodium],pH,[5]; [8],9.21
same,pH,[5]; in water and phosphate buffered saline,> 8.0
same,pH,[6],7.77
"O=C(O)CN(CCN(CC(=O)O)CC(=O)O)CC(=O)O [EDTA, ethylenediaminetetraacetic acid]",Clotting time (ACT),[4]; 75 ng/mg,179 s
same,Increase in clotting time compared to control,[4]; 75 ng/mg,25 s
same,Clotting time (ACT),[4]; 100 ng/mg,247 s
same,Increase in clotting time compared to control,[4]; 100 ng/mg,93 s
same,Clotting time (ACT),[4]; 150 ng/mg,275 s
same,Increase in clotting time compared to control,[4]; 150 ng/mg,121 s
same,Clotting time (ACT),[4]; 200 ng/mg,>500 s
same,Increase in clotting time compared to control,[4]; 200 ng/mg,>346 s
same,blood coagulation compared to the blood control,[4],significant delayed blood coagulation
O=C(O)CN(CCN(CC(=O)O)CC(=O)O)CC(=O)O [EDTA•2Na•2H2O],Clotting time (ACT),[4]; 100 ng/mg,191 s
same,Increase in clotting time compared to control,[4]; 100 ng/mg,37 s
same,Clotting time (ACT),[4]; 200 ng/mg,264 s
same,Increase in clotting time compared to control,[4]; 200 ng/mg,110 s
same,Clotting time (ACT),[4]; 300 ng/mg,374 s
same,Increase in clotting time compared to control,[4]; 300 ng/mg,220 s
same,blood coagulation compared to the blood control,[4]; listed as EDTA disodium salt,The same trend
same,pH,"[5]; 1 mg/ml in d-water, 21.8-22.0 ° C., listed as EDTA disodium",6.42
same,pH,"[5]; in water and phosphate buffered saline, listed as EDTA disodium salt",6.42-6.92
same,pH,[6]; listed as EDTA disodium,6.92
CN1CCc2nc(C(=O)N[C@@H]3C[C@@H](C(=O)N(C)C)CC[C@@H]3NC(=O)C(=O)Nc3ccc(Cl)cn3)sc2C1 [Edoxaban],net ACT,[2]; 0.15 ng/mg,42
same,net ACT,[2]; 0.3 ng/mg,87
CCCSc1nc(N[C@@H]2C[C@H]2c2ccc(F)c(F)c2)c2nnn([C@@H]3C[C@H](OCCO)[C@@H](O)[C@H]3O)c2n1 [Ticagrelor],net ACT,[3]; [9],18 s
CCCCS(=O)(=O)N[C@@H](Cc1ccc(OCCCCC2CCNCC2)cc1)C(=O)O [Tirofiban],net ACT,[3]; [9],9 s
Dalteparin,LLL / smooth muscle cell proliferation compared to bare metal control stents,porcine coronary artery,larger LLLs compared to control
same,inhibition of fibrin formation compared to bare metal control stents,porcine coronary artery,not effective at inhibiting fibrin formation
